US9732078B2, “Therapeutic use of imidazopyridine derivatives” (SANOFI, priority 2012, dated 2017)

Assays:
Format in all cases: cell-based
[1] = tested on: TCC97-7 bladder cancer tumour cells carrying the Ser249Cys mutation of FGF receptor 3; assay: Inhibition of serum-induced proliferation of TCC97-7 bladder cancer cells (count of Hoechst 33342-labelled nuclei after 3 days); settings: TCC97-7 cells in presence of serum
Description: To do this, 2000 cells are seeded in the morning in 50 μl of complete medium (Ham-F/12, 1% FCS, 2 mM glutamine, non-essential amino acids, sodium pyruvate, 1% insulin/transferrin/selenium, hydrocortisone). In the evening, 50 μl of the various compounds are added at 0.02, 0.2, 2 or 20 μM after dilution in complete culture medium in order to obtain final concentrations of 0.01, 0.1, 1 and 10 μM. After 3 days, the cell proliferation is evaluated by measuring the number of nuclei at the bottom of each well corresponding to a number of cells. The nuclei are detected by means of labelling with Hoechst 33342 (Invitrogen, ref H3570). 100 μl of Hoechst 33342 diluted to 1/5000th in PBS are added to each well for 30 min at ambient temperature on non-fixed cells. The nuclei are detected by fluorescence at 350 nm at ×2 magnification with an Operetta (PerkinElmer) using the Acapella (PerkinElmer) imaging software and analysed using the Columbus (PerkinElmer) image analysis software. The percentage inhibition of the cell proliferation is calculated by considering the number of nuclei present in the wells in which the TCC97-7 cells are cultured in the absence of FGF-R antagonists to be 0% inhibition. 100% inhibition would correspond to a well no longer containing cells.

[2] = tested on: TCC97-7 bladder cancer tumour cells carrying the Ser249Cys mutation of FGF receptor 3; assay: Cytotoxic effect: percentage of permeabilized (very fluorescent, Hoechst 33342) TCC97-7 cells; settings: 3 days
Description: In parallel to their antiproliferative capacity, the potential cytotoxic effect of the FGF-R antagonists is measured by means of quantifying the number of cells of which the membranes are permeabilized. The appearance of pores in the plasma membrane of the cells corresponds to a state of cell death which enables the Hoechst 33342 to penetrate more easily into the cell. This is reflected by a very strong increase in the amount of fluorescence detected in the nuclei. The percentage of cells in a state of cell death is calculated by the ratio between the number of very fluorescent nuclei to the total number of nuclei, multiplied by 100. The observations are carried out in the same way as the quantification of the nuclei for the cell proliferation.

[3] = tested on: TCC97-7 bladder cancer cells carrying the Ser249Cys mutation of FGF receptor 3; assay: Reduction of intracellular ATP content of TCC97-7 cells (Cell Titer-Glo, 3 days, serum-supplemented medium); settings: TCC97-7 cells in presence of serum
Description: Evaluation of the Capacity of the FGF-R Antagonists to Reduce the ATP Content of TCC97-7 Bladder Cancer Cells Carrying the Ser249Cys Mutation of FGF Receptor 3, Cultured in a Serum-Supplemented Medium
To do this, 3000 cells are seeded in 50 μl of complete medium (Ham-F/12, 1% FCS, […], non-essential amino acids, sodium pyruvate, 1% insulin/transferrin/selenium, hydrocortisone). 16 hours later, 50 μl of the various compounds are added at 0.2, 2, 20 and 60 μM after dilution in complete culture medium in order to obtain final concentrations of 0.1, 1, 10 and 30 μM. After 3 days, the ATP content of the cells is measured using the Cell Titer-Glo® Luminescent Cell Viability Assay kit (Promega, France) according to the supplier's recommendations. The percentage inhibition of the amount of intracellular ATP is calculated by considering the ATP content of the cells cultured in the absence of antagonist to be 0% inhibition. 100% inhibition would correspond to a well in which the ATP content is zero.

Structure (SMILES)	Inhibition of proliferation (%) ([1]; 0.01 μM)	Inhibition of proliferation (%) ([1]; 0.1 μM)	Inhibition of proliferation (%) ([1]; 1 μM)	Inhibition of proliferation (%) ([1]; 10 μM)	Cytotoxicity (% of permeable cells) ([2]; 0.01 μM)	Cytotoxicity (% of permeable cells) ([2]; 0.1 μM)	Cytotoxicity (% of permeable cells) ([2]; 1 μM)	Cytotoxicity (% of permeable cells) ([2]; 10 μM)	Inhibition of the amount of intracellular ATP (%) ([3]; 0.1 μM)	Inhibition of the amount of intracellular ATP (%) ([3]; 1 μM)	Inhibition of the amount of intracellular ATP (%) ([3]; 10 μM)	Inhibition of the amount of intracellular ATP (%) ([3]; 30 μM)
Cn1c(=O)n(Cc2ccc(F)cc2)c(=O)c2cc(C(=O)c3ncc4ccccn34)ccc21 [compound 226]	3%	8%	28%	73%	5%	6%	10%	25%	−1%	5%	41%	–
CCCn1c(=O)n(CCOc2ccc(F)cc2)c(=O)c2cc(C(=O)c3nc(-c4cccc(C(=O)[O-])c4)c4ccccn34)ccc21.[Na+] [compound 221, Sodium salt of 3-[3-({3-[2-(4-fluorophenoxy)ethyl]-1-propyl-2,4-dioxo-1,2,3,4-tetrahydroquinazolin-6-yl}carbonyl)imidazo[1,5-a]pyridin-1-yl]benzoic acid]	5%	27%	80%	85%	4%	5%	6%	7%	−2%	7%	73%	–
Cn1c(=O)n(Cc2ccc(F)cc2)c(=O)c2cc(C(=O)c3nc(-c4cccc(C(=O)[O-])c4)c4ccccn34)ccc21.[Na+] [compound 49, Sodium salt of 3-(3-{[3-(4-fluorobenzyl)-1-methyl-2,4-dioxo-1,2,3,4-tetrahydroquinazolin-6-yl]carbonyl}imidazo[1,5-a]pyridin-1-yl)benzoic acid]	–	9%	55%	81%	5%	5%	6%	12%	−2%	14%	67%	–
CCOC(=O)c1cccc(-c2nc(C(=O)c3ccc4c(c3)c(=O)n(Cc3ccc(F)cc3)c(=O)n4C)n3ccccc23)c1 [compound 79]	5%	0%	17%	71%	1%	1%	2%	10%	−6%	7%	72%	–
Cn1c(=O)n(CCc2ccc(F)cc2)c(=O)c2cc(C(=O)c3nc(-c4cccc(C(=O)[O-])c4)c4ccccn34)ccc21.[Na+] [compound 148]	12%	6%	15%	81%	4%	4%	4%	11%	1%	8%	66%	–
Cc1ccc(Cn2c(=O)c3cc(C(=O)c4nc(-c5cccnc5)c5ccccn45)ccc3n(C)c2=O)s1 [compound 220]	4%	3%	13%	49%	6%	5%	5%	11%	6%	10%	16%	60%
Cn1c(=O)n(Cc2cccc(F)c2)c(=O)c2cc(C(=O)c3nc(-c4cccc(C(N)=O)c4)c4ccccn34)ccc21 [compound 108]	−4%	−5%	6%	22%	4%	5%	4%	4%	–	–	–	–
Cc1nnc(-c2cccc(-c3nc(C(=O)c4ccc5c(c4)c(=O)n(Cc4ccc(F)cc4)c(=O)n5C)n4ccccc34)c2)o1 [compound 140]	0%	−1%	−7%	26%	1%	1%	1%	2%	–	–	–	–
CCCn1c(=O)n(Cc2ccc(F)cc2)c(=O)c2cc(C(=O)c3nc(-c4cnc(N(C)C)nc4)c4ccccn34)ccc21 [compound 232]	−6%	1%	20%	79%	3%	3%	4%	23%	7%	8%	45%	–
COCn1c(=O)n(Cc2ccc(F)cc2)c(=O)c2cc(C(=O)c3nc(-c4cccc(C(=O)[O-])c4)c4ccccn34)ccc21.[Na+] [compound 71]	0%	1%	14%	85%	4%	4%	5%	1%	−4%	−1%	94%	–
